Experimental data: patent publication US11311513B2, “Methods, agents, and compositions for the treatment of acute myeloid leukemia” (UNIVERSITY OF CINCINNATI, priority 2017, dated 2022)
Where “and” joins values, the source holds several entries; their conditions need not be identical. Equal entries are not always repeated.

Key:
global 5hmC level = assay: Global 5hmC level (5hmC labeling and dot-blotting); type: cell-based; settings: for global 5hmC levels: MONOMAC-6 cells
Description: FIG. 1. […] Cell viability was analyzed by MTS 48 hours post-treatment. […] TET1 expression levels were detected by qPCR 48 hrs post-treatment. […] TET1 expression levels (e) and cell viability (f) were detected 24 hrs post-treatment. *, P<0.05, two-tailed t-test. MM6, MONOMAC-6. Error bar indicates SD of triplicate experiments.
The 5-hydroxymethylcytosine (5-hmC) labeling reactions and 5hmC dot blotting were performed as described previously (Huang, H., et al. TET1 plays an essential oncogenic role in MLL-rearranged leukemia. Proc Natl Acad Sci USA 110, 11994-11999 (2013)). Briefly, 3 jig sonicated genomic DNA (100-500 bp) fragments were incubated in solution containing 50 mM Hepes buffer (pH 7.9), 25 mM MgCl2, 100 jiM UDP-6-N3-Glc, and 1 jiM beta-glucosyltransferase (f3-GT) for 1 hr at 37° C. The CLICK was performed with addition of 150 jiM dibenzocyclooctyne modified biotin into the purified DNA solution, and the reaction mixture was incubated for 2 hrs at 37° C. Six hundred nanograms of labeled genomic DNA samples were spotted on an Amersham Hybond-N+ membrane (GE Healthcare, Little Chalfont, UK). DNA was fixed to the membrane by Stratagene UV Stratalinker 2400 (auto-crosslink). The membrane was then blocked with 5% BSA and incubated with Avidin-HRP (1:40,000) (Bio-Rad, Hercules, Calif.), and then visualized by enhanced chemiluminescence.

[1] = system: wild-type mouse BM progenitor cells transduced with MLL-AF9; assay: Viability of MLL-AF9-transduced wild-type BM progenitor cells; type: cell-based; settings: 48 hrs
Description: FIG. 5. […] Gene expression levels are shown. […] ChIP-qPCR assay was carried out 48 hrs after drug treatment. Enrichment of STAT3, STAT5, or IgG at the TET1 promoter region and other regions are shown. […] BM progenitor cells of wild-type or Tet1^−/− mice were retrovirally transduced with MLL-AF9. […] Relative cell viabilities are shown. (m) Cre-Tet1f mouse BM progenitor cells were retrovirally transduced with MLL-AF9. […] Relative cell viability is shown. (n-o) THP-1 (n) and MONOMAC-6 (o) cells were infected with lentivirus of pLenti-puro vector-based Tet1 construct. […] Relative cell viability is shown. *, P<0.05; **, P<0.01, two-tailed t-test. Error bar indicates SD of triplicate experiments.
siRNAs were transfected into MONOMAC-6 cells with Cell Line Nucleofector Kit V following program T-037, using the Amaxa Nucleofector Technology (Amaxa Biosystems, Berlin, Germany). Experiments were performed 48 h after transfection. Retrovirus infection of mouse BM progenitor cells were conducted as described previously with some modifications. Briefly, retrovirus vectors were co-transfected with pCL-Eco packaging vector (IMGENEX, San Diego, Calif.) into HEK293T cells using Effectene Transfection Reagent (Qiagen, Valencia, Calif.) to produce retrovirus. […]

AE9a-AML = assay: AML-ETO9a (AE9a) AML secondary BMT mouse model; type: in vivo, mice; settings: for median survival: 2.5 mg/kg i.p. once per day for 10 days, control 46 days
Description: FIG. 2. […] The secondary BMT recipient mice were transplanted with leukemic BM blast cells collected from primary MLL-AF9 AML mice. […] Kaplan-Meier curves are shown. The P values were determined by log-rank test. (b) Wright-Giemsa staining of mouse peripheral blood (PB) and BM, or hematoxylin and eosin (H&E) staining of mouse spleen and liver of the treated or control leukemic mice. (c,d) Tet1/2/3 gene expression levels (c) or Tet1 protein level (d) in BM blast cells of the treated or control leukemic mice. *, P<0.05, two-tailed t-test. Error bar indicates SD of triplicate experiments. […] The secondary BMT recipient mice were transplanted with leukemic BM blast cells collected from the primary AE9a-AML mice. […] Kaplan-Meier curves are shown. The P values were determined by log-rank test.
Secondary mouse BMT was carried out as described previously. […] For the “5+3” treatment, AraC (Cytarabine, Bedford Laboratories) and DNR (Daunorubicin, Sigma-Aldrich) were reconstituted with PBS, filtered, and stored in aliquots at −20° C. The “5+3” therapy regimen consists of five consecutive daily doses of 50 mg/kg AraC along with 3 mg/kg DNR daily during the first three days of treatment. Drugs were delivered by tail vein and intraperitoneal injection. Weights were taken daily during treatment and doses were recalculated to ensure the mice received a consistent dose of 50 mg/kg AraC and 3 mg/kg DNR every treatment.

[2] = system: BM cells of leukemic mice with MLL-AF9 fusion (MA9-AML) or FLT3-ITD/NPM1^mut; assay: MTS and apoptosis assays in BM cells of leukemic mice; type: cell-based; settings: 50 nM; 3 days
Description: FIG. 14. […] BM cells of leukemic mice with MLL-AF9 fusion (MA9-AML) or FLT3-ITD/NPM1^mut, and c-Kit^+ HSPCs from a pool of 6 healthy donor mice were cultured in liquid medium. […] MTS (a), apoptosis assays (b) and qPCR (c) were conducted 3 days after cell seeding or drug treatments. Error bar indicates SD of triplicate experiments.
These experiments were conducted as described previously (Jiang, X., et al., Blockade of miR-150 Maturation by MLL-Fusion/MYC/LIN-28 Is Required for MLL-Associated Leukemia, Cancer Cell 22:524-35 (2012); Li, Z., et al., miR-196b directly targets both HOXA9/MEIS1 oncogenes and FAS tumour suppressor in MLL-rearranged leukaemia, Nat Commun 2:688 (2012)) with ApoLive-Glo Multiplex Assay Kit, or CellTiter 96 AQueous Non-Radioactive Cell Proliferation Assay Kit (Promega, Madison, Wis.).

SMILES	global 5hmC level (global 5hmC level; 300 nM, THP-1 and MONOMAC-6 cells)	global 5hmC levels (global 5hmC level)	cell viability [1]	median survival (AE9a-AML)	viability of AML cells [2]	prolongation of median survival (AE9a-AML; versus control, 2.5 mg/kg i.p. 10 days)
COc1cc(C(c2cc3c(cc2O)OCO3)N2CCCC2)cc(OC)c1OC (stereo not shown) [NSC-370284, 6-(1-Pyrrolidinyl(3,4,5-trimethoxyphenyl)methyl)-1,3-benzodioxol-5-ol]	significantly repressed	significantly reduced	remarkable repression of cell viability	122 days and 114 days	dramatically suppressed	
CC(C)(C)c1cc(C(c2cc3c(cc2O)OCO3)N2CCOCC2)cc(C(C)(C)C)c1O (stereo not shown) [UC-514321, 6-{[4-Hydroxy-3,5-bis(2-methyl-2-propanyl)phenyl](4-morpholinyl)methyl}-1,3-benzodioxol-5-ol]		significantly reduced	remarkable repression of cell viability	160 days	dramatically suppressed	over 3 folds
